A short description of this series: Solubility of Cefmenoxime hydrochloride in organic solvents. Type of series: physicochemical. The source says:
According to the instant invention, after the treatment of step 1), these impurities can be separated from Cefmenoxime hydrochloride.
Treating Cefmenoxime hydrochloride crude directly with a good-poor solvent precipitation method can not achieve the desired purity.

Counter-ions that a name gives are not always drawn.

In the case of `CO/N=C(\C(=O)N[C@@H]1C(=O)N2C(C(=O)O)=C(CSc3nnnn3C)CS[C@H]12)c1csc(N)n1` [Cefmenoxime hydrochloride, (6R,7R)-7-[(Z)-2-(2-amino-thiazol-4-yl)-2-methoxyiminoacetylamino]-3-[[(1-methyl-1H-tetrazol-5-yl)-sulfanyl]methyl]-8-oxo-5-thia-1-azabicyclo[4.2.0]oct-2-ene-2-carboxylic acid hydrochloride (2:1)], under “solvent acetone”, the solubility in acetone entry is recorded as “almost insoluble”. For the same compound, the solubility in ethanol entry (solvent ethanol) was “almost insoluble”. For the same compound, the “solubility in ethyl acetate” value (solvent ethyl acetate) is reported as “almost insoluble”. In addition, the solubility in formamide entry (solvent formamide) is recorded as “soluble”. For the same compound, the solubility in methanol entry (solvent methanol) was “slightly soluble”.

Source of the values: patent publication US20140121370A1, “NOVEL METHOD FOR PREPARING CEFMENOXIME HYDROCHLORIDE COMPOUND” (Hainan Lingkang Pharmaceutical Co., Ltd., priority 2011, published 2014).
